According to a compilation of properties of binary mixtures (doi:10.1016/j.molliq.2014.07.002):

Assay: xn = mol fraction of the nth substance listed
Conditions: 101 kPa

For `CN1CCCC1=O` + CCCC[n+]1ccn(C)c1.[Cl-], the speed of sound (308.15 K, x1 = 1) was 1528 m/s and the speed of sound (313.15 K, x1 = 1) was 1520 m/s.

For `CN1CCCC1=O` + CC[n+]1ccn(C)c1.COS(=O)(=O)[O-], the speed of sound (298.15 K, x1 = 1) was 1572 m/s, the viscosity (298.15 K, x1 = 1) was 1.66 mPa·s and the speed of sound (303.15 K, x1 = 1) was 1552 m/s. It also gave a viscosity (303.15 K, x1 = 1) of 1.49 mPa·s, a speed of sound (308.15 K, x1 = 1) of 1528 m/s and a viscosity (308.15 K, x1 = 1) of 1.39 mPa·s.

Work on `CCCC[n+]1ccn(C)c1.[Cl-]` + CN1CCCC1=O yielded a speed of sound (298.15 K, x1 = 0.0138) of 1575 m/s, a speed of sound (298.15 K, x2 = 0) of 1874 m/s and a speed of sound (298.15 K, x2 = 0.0396) of 1853 m/s. It also gave a speed of sound (298.15 K, x2 = 0.0814) of 1837 m/s, a speed of sound (298.15 K, x2 = 0.1986) of 1800 m/s and a speed of sound (298.15 K, x2 = 0.3683) of 1755 m/s. It also gave a speed of sound (298.15 K, x2 = 0.5125) of 1723 m/s, a speed of sound (298.15 K, x2 = 0.704) of 1670 m/s and a speed of sound (298.15 K, x2 = 0.7466) of 1656 m/s. The speed of sound (298.15 K, x2 = 0.8415) was 1625 m/s, the speed of sound (298.15 K, x2 = 0.8939) was 1606 m/s and the speed of sound (298.15 K, x2 = 0.9721) was 1579 m/s. It also gave a speed of sound (303.15 K, x1 = 0.0138) of 1555 m/s, a speed of sound (303.15 K, x2 = 0) of 1865 m/s and a speed of sound (303.15 K, x2 = 0.01) of 1860 m/s. For the same molecule, the speed of sound (303.15 K, x2 = 0.0396) was 1844 m/s, the speed of sound (303.15 K, x2 = 0.0814) was 1829 m/s and the speed of sound (303.15 K, x2 = 0.1986) was 1790 m/s. The speed of sound (303.15 K, x2 = 0.6367) was 1674 m/s, the speed of sound (303.15 K, x2 = 0.704) was 1655 m/s and the speed of sound (303.15 K, x2 = 0.8415) was 1609 m/s. It also gave a speed of sound (303.15 K, x2 = 0.8939) of 1588 m/s, a speed of sound (303.15 K, x2 = 0.9721) of 1562 m/s and a speed of sound (308.15 K, x1 = 0.0138) of 1531 m/s. For the same molecule, the speed of sound (308.15 K, x2 = 0) was 1855 m/s, the speed of sound (308.15 K, x2 = 0.01) was 1848 m/s and the speed of sound (308.15 K, x2 = 0.0814) was 1819 m/s. The speed of sound (308.15 K, x2 = 0.1986) was 1779 m/s, the speed of sound (308.15 K, x2 = 0.5125) was 1688 m/s and the speed of sound (308.15 K, x2 = 0.6367) was 1654 m/s. It also gave a speed of sound (308.15 K, x2 = 0.7466) of 1621 m/s, a speed of sound (308.15 K, x2 = 0.8939) of 1568 m/s and a speed of sound (308.15 K, x2 = 0.9254) of 1556 m/s. The speed of sound (308.15 K, x2 = 0.9721) was 1539 m/s, the speed of sound (313.15 K, x1 = 0.0138) was 1527 m/s and the speed of sound (313.15 K, x2 = 0) was 1827 m/s. For the same molecule, the speed of sound (313.15 K, x2 = 0.0814) was 1796 m/s, the speed of sound (313.15 K, x2 = 0.1986) was 1760 m/s and the speed of sound (313.15 K, x2 = 0.5125) was 1674 m/s. It also gave a speed of sound (313.15 K, x2 = 0.704) of 1623 m/s, a speed of sound (313.15 K, x2 = 0.7466) of 1611 m/s and a speed of sound (313.15 K, x2 = 0.8939) of 1559 m/s. It also gave a speed of sound (313.15 K, x2 = 0.9254) of 1552 m/s and a speed of sound (313.15 K, x2 = 0.9721) of 1536 m/s.

For `CC[n+]1ccn(C)c1.COS(=O)(=O)[O-]` + CN1CCCC1=O, the speed of sound (298.15 K, x1 = 0.0115) was 1579 m/s, the viscosity (298.15 K, x1 = 0.0115) was 2.22 mPa·s and the speed of sound (298.15 K, x2 = 0) was 1730 m/s. The viscosity (298.15 K, x2 = 0) was 84 mPa·s, the speed of sound (298.15 K, x2 = 0.0419) was 1724 m/s and the viscosity (298.15 K, x2 = 0.0419) was 77 mPa·s. The speed of sound (298.15 K, x2 = 0.0861) was 1718 m/s, the viscosity (298.15 K, x2 = 0.0861) was 69 mPa·s and the speed of sound (298.15 K, x2 = 0.2085) was 1711 m/s. It also gave a viscosity (298.15 K, x2 = 0.2085) of 53.3 mPa·s, a speed of sound (298.15 K, x2 = 0.3825) of 1700 m/s and a viscosity (298.15 K, x2 = 0.3825) of 35.9 mPa·s. For the same molecule, the speed of sound (298.15 K, x2 = 0.5291) was 1684 m/s, the viscosity (298.15 K, x2 = 0.5291) was 23.3 mPa·s and the speed of sound (298.15 K, x2 = 0.6518) was 1663 m/s. For the same molecule, the viscosity (298.15 K, x2 = 0.6518) was 14.6 mPa·s, the speed of sound (298.15 K, x2 = 0.718) was 1649 m/s and the viscosity (298.15 K, x2 = 0.718) was 10.5 mPa·s. For the same molecule, the speed of sound (298.15 K, x2 = 0.757) was 1639 m/s, the viscosity (298.15 K, x2 = 0.757) was 9.2 mPa·s and the speed of sound (298.15 K, x2 = 0.8983) was 1604 m/s. For the same molecule, the viscosity (298.15 K, x2 = 0.8983) was 4.01 mPa·s, the speed of sound (298.15 K, x2 = 0.9298) was 1596 m/s and the viscosity (298.15 K, x2 = 0.9298) was 3.43 mPa·s. The speed of sound (298.15 K, x2 = 0.9743) was 1582 m/s, the viscosity (298.15 K, x2 = 0.9743) was 3.11 mPa·s and the speed of sound (303.15 K, x1 = 0.0115) was 1557 m/s. The viscosity (303.15 K, x1 = 0.0115) was 1.88 mPa·s, the speed of sound (303.15 K, x2 = 0) was 1718 m/s and the viscosity (303.15 K, x2 = 0) was 69 mPa·s. The speed of sound (303.15 K, x2 = 0.0419) was 1708 m/s, the viscosity (303.15 K, x2 = 0.0419) was 63 mPa·s and the speed of sound (303.15 K, x2 = 0.0861) was 1702 m/s. For the same molecule, the viscosity (303.15 K, x2 = 0.0861) was 56 mPa·s, the speed of sound (303.15 K, x2 = 0.2085) was 1688 m/s and the viscosity (303.15 K, x2 = 0.2085) was 42.1 mPa·s. For the same molecule, the speed of sound (303.15 K, x2 = 0.6518) was 1638 m/s, the viscosity (303.15 K, x2 = 0.6518) was 10.8 mPa·s and the speed of sound (303.15 K, x2 = 0.718) was 1622 m/s. The viscosity (303.15 K, x2 = 0.718) was 8.9 mPa·s, the speed of sound (303.15 K, x2 = 0.757) was 1610 m/s and the viscosity (303.15 K, x2 = 0.757) was 7.3 mPa·s. For the same molecule, the speed of sound (303.15 K, x2 = 0.8502) was 1589 m/s, the viscosity (303.15 K, x2 = 0.8502) was 4.04 mPa·s and the speed of sound (303.15 K, x2 = 0.8983) was 1577 m/s. It also gave a viscosity (303.15 K, x2 = 0.8983) of 3.11 mPa·s, a speed of sound (303.15 K, x2 = 0.9743) of 1560 m/s and a viscosity (303.15 K, x2 = 0.9743) of 2.05 mPa·s. The speed of sound (308.15 K, x2 = 0) was 1707 m/s, the viscosity (308.15 K, x2 = 0) was 56.7 mPa·s and the speed of sound (308.15 K, x2 = 0.0419) was 1692 m/s. The viscosity (308.15 K, x2 = 0.0419) was 51.3 mPa·s, the speed of sound (308.15 K, x2 = 0.0861) was 1685 m/s and the viscosity (308.15 K, x2 = 0.0861) was 45.9 mPa·s. For the same molecule, the speed of sound (308.15 K, x2 = 0.2085) was 1663 m/s, the viscosity (308.15 K, x2 = 0.2085) was 33.6 mPa·s and the speed of sound (308.15 K, x2 = 0.3825) was 1651 m/s. The viscosity (308.15 K, x2 = 0.3825) was 21.8 mPa·s, the speed of sound (308.15 K, x2 = 0.5291) was 1630 m/s and the viscosity (308.15 K, x2 = 0.5291) was 14 mPa·s. It also gave a speed of sound (308.15 K, x2 = 0.757) of 1582 m/s, a viscosity (308.15 K, x2 = 0.757) of 5.82 mPa·s and a speed of sound (308.15 K, x2 = 0.8502) of 1560 m/s. For the same molecule, the viscosity (308.15 K, x2 = 0.8502) was 3.61 mPa·s, the speed of sound (308.15 K, x2 = 0.8983) was 1544 m/s and the viscosity (308.15 K, x2 = 0.8983) was 2.8 mPa·s. It also gave a speed of sound (308.15 K, x2 = 0.9298) of 1536 m/s, a viscosity (308.15 K, x2 = 0.9298) of 2.22 mPa·s and a speed of sound (308.15 K, x2 = 0.9743) of 1534 m/s. For the same molecule, the viscosity (308.15 K, x2 = 0.9743) was 1.86 mPa·s, the speed of sound (313.15 K, x1 = 0.0115) was 1518 m/s and the viscosity (313.15 K, x1 = 0.0115) was 1.6 mPa·s. For the same molecule, the speed of sound (313.15 K, x2 = 0) was 1694 m/s, the viscosity (313.15 K, x2 = 0) was 47.6 mPa·s and the speed of sound (313.15 K, x2 = 0.0419) was 1679 m/s. The viscosity (313.15 K, x2 = 0.0419) was 42.8 mPa·s, the speed of sound (313.15 K, x2 = 0.2085) was 1644 m/s and the viscosity (313.15 K, x2 = 0.2085) was 27.7 mPa·s. The speed of sound (313.15 K, x2 = 0.3825) was 1632 m/s, the viscosity (313.15 K, x2 = 0.3825) was 17.7 mPa·s and the speed of sound (313.15 K, x2 = 0.5291) was 1614 m/s. The viscosity (313.15 K, x2 = 0.5291) was 11.5 mPa·s, the speed of sound (313.15 K, x2 = 0.6518) was 1593 m/s and the viscosity (313.15 K, x2 = 0.6518) was 8.2 mPa·s. It also gave a speed of sound (313.15 K, x2 = 0.718) of 1579 m/s, a viscosity (313.15 K, x2 = 0.718) of 6.07 mPa·s and a speed of sound (313.15 K, x2 = 0.757) of 1566 m/s. It also gave a viscosity (313.15 K, x2 = 0.757) of 5.22 mPa·s, a speed of sound (313.15 K, x2 = 0.8502) of 1545 m/s and a viscosity (313.15 K, x2 = 0.8502) of 3.27 mPa·s. It also gave a speed of sound (313.15 K, x2 = 0.8983) of 1528 m/s, a viscosity (313.15 K, x2 = 0.8983) of 2.56 mPa·s and a speed of sound (313.15 K, x2 = 0.9298) of 1524 m/s. It also gave a viscosity (313.15 K, x2 = 0.9298) of 2.11 mPa·s, a speed of sound (313.15 K, x2 = 0.9743) of 1522 m/s and a viscosity (313.15 K, x2 = 0.9743) of 1.73 mPa·s.
